Data on eleven compounds can be found in patent publication US12209144B2, “Cyclic peptides as proprotein convertase subtilisin/kexin type 9 (PCSK9) inhibitors for the treatment of metabolic disorders” (Novartis AG, priority 2018, dated 2025).

Each structure is given as a SMILES string. Bridge positions count the residues as written; N and C are the ends. Square brackets hold non-standard residues; d marks the D form. Peptide text beside a SMILES is read from it. ξ: configuration not given here. Phe(3,4-Cl2) = N[C@@H](Cc1ccc(Cl)c(Cl)c1)C(=O)O; Bip = N[C@@H](Cc1ccc(-c2ccccc2)cc1)C(=O)O; Phe(4-Cl) = N[C@@H](Cc1ccc(Cl)cc1)C(=O)O; hSer = N[C@@H](CCO)C(=O)O; NMeA = CN[C@@H](C)C(=O)O; ξD = NC(CC(=O)O)C(=O)O

human PCSK9, sequence (Q8NBP7 153-692): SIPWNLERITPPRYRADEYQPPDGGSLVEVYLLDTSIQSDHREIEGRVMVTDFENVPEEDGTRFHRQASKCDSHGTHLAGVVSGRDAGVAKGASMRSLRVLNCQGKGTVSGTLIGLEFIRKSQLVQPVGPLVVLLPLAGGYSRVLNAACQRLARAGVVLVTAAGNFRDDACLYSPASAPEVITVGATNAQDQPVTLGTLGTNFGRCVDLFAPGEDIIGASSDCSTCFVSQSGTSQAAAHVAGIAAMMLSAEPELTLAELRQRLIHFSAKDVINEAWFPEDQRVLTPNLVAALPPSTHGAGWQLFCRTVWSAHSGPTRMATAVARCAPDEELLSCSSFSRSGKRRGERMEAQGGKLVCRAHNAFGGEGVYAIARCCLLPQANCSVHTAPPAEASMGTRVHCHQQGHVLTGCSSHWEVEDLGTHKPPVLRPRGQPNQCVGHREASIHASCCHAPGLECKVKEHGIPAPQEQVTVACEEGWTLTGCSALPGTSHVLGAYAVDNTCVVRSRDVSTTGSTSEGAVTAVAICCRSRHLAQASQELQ
human PCSK9, sequence (Q8NBP7 31-152 partner limits assumed): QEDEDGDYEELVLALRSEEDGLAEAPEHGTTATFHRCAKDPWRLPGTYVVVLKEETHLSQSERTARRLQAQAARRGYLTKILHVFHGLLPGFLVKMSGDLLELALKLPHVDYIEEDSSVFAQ

The target of one test is human PCSK9 (Homo sapiens, UniProt Q8NBP7). In words: PCSK9 ligand binding assay (TR-FRET): interference with binding of human PCSK9 to human LDLR. To be noted: PCSK9 FRET assay, efficacy (Amax); 0% = DMSO, 100% = 1 uM unlabeled human PCSK9. As for the experimental part:
The activity of cyclic polypeptides according to the disclosure as PCSK9 can be assessed using a time resolved fluorescence resonance energy transfer (TR-FRET) assay. This time resolved fluorescence resonance energy transfer (TR-FRET) assay measures the ability of a cyclic polypeptides of the disclosure to interfere with the binding of human PCSK9 to human LDLR, providing measures of both potency (IC50) and efficacy (Amax).
Solutions of varying concentrations are prepared by diluting a cyclic polypeptide of the disclosure in dimethylsulfoxide (DMSO) and the resulting solutions are pipetted into a plate. DMSO is used as a negative control. An intermediate plate is prepared in by transferring a known amount of each polypeptide solution and of the control from the compound plate into a corresponding well containing assay buffer and mixing thoroughly. A third plate is then prepared to be used for the assay by adding Human PCSK9 Alexa Fluor 647, followed by a known amount of each solution from the intermediate plate. Unlabeled human PCSK9 in assay buffer containing DMSO is used as a positive control for the assay. Following incubation, Human LDLR extracellular domain-Europium Kryptate is added to each well of the assay plate and the resulting mixture is incubated for an additional period of time. The TR-FRET signal is measured and the FRET ratio (FRET/Europium) is used to calculate the IC50 and Amax of the cyclic polypeptides.
The PCSK9 binding of the cyclic polypeptides of the disclosure were measured using a time resolved fluorescence resonance energy transfer (TR-FRET) assay. This time resolved fluorescence resonance energy transfer (TR-FRET) assay measures the ability of a cyclic polypeptide of the disclosure to interfere with the binding of human PCSK9 to human LDLR, providing measures of both potency (IC50) and efficacy (Amax).
• Human PCSK9 • Human PCSK9 Alexa Fluor 647 • Human LDLR extracellular domain-Europium Kryptate • Proxi plate-low volume assay plate (PerkinElmer #6008280) • Greiner V-bottom (Greiner BioOne #781280) • Assay Buffer • 20 mM HEPES, pH 7.5 • 150 mM NaCl • 1 mM CaCl2 • 0.01% v/v Tween20 • 0.01% w/v BSA
A master compound plate was prepared in a Greiner V bottom plate by diluting cyclic polypeptides of the disclosure in dimethylsulfoxide to the correct concentration for the desired top concentration based on the desired final concentration: for a 30 uM final concentration the master plate concentration is 1.5 mM (68 uL DMSO+12 uL 10 mM of a cyclic polypeptide of the disclosure), for a 10 uM final concentration the master plate concentration is 0.5 mM (76 uL DMSO+4 uL 10 mM of a cyclic polypeptide of the disclosure), for a 3 uM final concentration the master plate concentration is 150 uM (69 uL DMSO+1 uL 10 mM a cyclic peptide of the disclosure). These solutions were pipetted into columns 1 and 11 of the compound plate. Threefold serial dilutions were generated in columns 2-10 and 12-20 of the compound plate by transferring 10 uL into 20 μL of DMSO. Columns 21 and 22 of the compound plate were negative controls containing DMSO alone.
An intermediate plate was generated in a Greiner V bottom plate by transferring 8 uL from each well of the master plate into a corresponding well containing 92 μL of assay buffer and mixing thoroughly.
A Proxi plate-low volume assay plate was used for the assay. To all wells of the plate was added 10 μL of 16 nM Human PCSK9 Alexa Fluor 647, followed by 5 uL from the intermediate plate. […] Following a 30 minute incubation, 5 μL of 4 nM Human LDLR extracellular domain-Europium Kryptate was added and the mixture was incubated for an additional 2 hours.
The TR-FRET signal was measured on an EnVision or PheraStar instrument with a […] delay, 330 nm excitation and 665 nm emission (FRET), and 330 nm excitation and 615 nm (Europium). The FRET ratio (FRET/Europium) was used for calculations. […]
With `CC(C)[C@@H]1NC(=O)[C@H](Cc2ccccc2)NC(=O)CSC[C@@H](C(=O)NCC(N)=O)NC(=O)[C@@H]2CCCN2C(=O)[C@H](C)NC(=O)[C@H](CCCCN)NC(=O)[C@H](C)N(C)C(=O)[C@H](Cc2ccc(-c3ccccc3)cc2)NC(=O)[C@H](C)N(C)C(=O)[C@H](Cc2ccccc2)NC(=O)[C@H]([C@@H](C)O)NC(=O)[C@H]([C@@H](C)O)NC(=O)[C@H](CC(N)=O)NC1=O` [Example 1-23, Ac*-F-V-N-T-T-F-(N-Me)A-B-(N-Me)A-K-A-P-C*-G-NH2] ({CH2CO}-FVNTTF[NMeA][Bip][NMeA]KAPCG-NH2; thioether N-13), the Maximum % inhibition was found to be 36%.
For `CC(C)[C@@H]1NC(=O)[C@H](Cc2ccccc2)NC(=O)CSC[C@@H](C(=O)NCC(N)=O)NC(=O)[C@@H]2CCCN2C(=O)[C@H](C)NC(=O)[C@H](CCC(=O)O)NC(=O)[C@H](C)N(C)C(=O)[C@H](Cc2ccc(-c3ccccc3)cc2)NC(=O)[C@H](C)N(C)C(=O)[C@H](Cc2ccccc2)NC(=O)[C@H]([C@@H](C)O)NC(=O)[C@H]([C@@H](C)O)NC(=O)[C@H](CO)NC1=O` [Example 1-24, Ac*-F-V-S-T-T-F-(N-Me)A-B-(N-Me)A-E-A-P-C*-G-NH2] ({CH2CO}-FVSTTF[NMeA][Bip][NMeA]EAPCG-NH2; thioether N-13), the Maximum % inhibition was 70%.
In turn, `CC(C)[C@@H]1NC(=O)[C@H](Cc2ccccc2)NC(=O)CSC[C@@H](C(=O)NCC(N)=O)NC(=O)[C@@H]2CCCN2C(=O)[C@H](CO)NC(=O)[C@H](CCC(=O)O)NC(=O)[C@H](C)N(C)C(=O)[C@H](Cc2ccc(-c3ccccc3)cc2)NC(=O)[C@H](C)N(C)C(=O)[C@H](Cc2ccc(-c3ccccc3)cc2)NC(=O)[C@H]([C@@H](C)O)NC(=O)[C@H]([C@@H](C)O)NC(=O)[C@H](CO)NC1=O` [Example 1-25, Ac*-F-V-S-T-T-B-(N-Me)A-B-(N-Me)A-E-S-P-C*-G-NH2] ({CH2CO}-FVSTT[Bip][NMeA][Bip][NMeA]ESPCG-NH2; thioether N-13) came in with a Maximum % inhibition of 68%.
The same measure, in the same setting: for `CC(C)[C@@H]1NC(=O)[C@H](Cc2ccccc2)NC(=O)CSC[C@@H](C(=O)NCC(N)=O)NC(=O)[C@@H]2CCCN2C(=O)[C@H](CO)NC(=O)[C@H](CCC(=O)O)NC(=O)[C@H](C)N(C)C(=O)[C@H](Cc2ccc(Cl)c(Cl)c2)NC(=O)[C@H](C)N(C)C(=O)[C@H](Cc2ccc(-c3ccccc3)cc2)NC(=O)[C@H]([C@@H](C)O)NC(=O)[C@H]([C@@H](C)O)NC(=O)[C@H](CC(=O)O)NC1=O` [Example 1-26, Ac*-F-V-D-T-T-B-(N-Me)A-(3,4-diCl)F-(N-Me)A-E-S-P-C*-G-NH2] ({CH2CO}-FVDTT[Bip][NMeA][Phe(3,4-Cl2)][NMeA]ESPCG-NH2; thioether N-13) the value was 84%.
On the same count and under the same terms, for `C[C@@H]1NC(=O)[C@H](C)N(C)C(=O)[C@H](Cc2ccc(-c3ccccc3)cc2)NC(=O)[C@H](C)N(C)C(=O)[C@H](Cc2ccccc2)NC(=O)[C@H]([C@@H](C)O)NC(=O)[C@H]([C@@H](C)O)NC(=O)[C@H](CC(N)=O)NC(=O)[C@H](CCC(=O)O)NC(=O)[C@H](Cc2ccccc2)NC(=O)CSC[C@@H](C(=O)NCC(N)=O)NC(=O)[C@@H]2CCCN2C(=O)[C@H](CO)NC1=O` [Example 1-27, Ac*-F-E-N-T-T-F-(N-Me)A-B-(N-Me)A-A-S-P-C*-G-NH2] ({CH2CO}-FENTTF[NMeA][Bip][NMeA]ASPCG-NH2; thioether N-13) the value was 55%.
In the case of `CC(C)[C@@H]1NC(=O)[C@H](Cc2ccccc2)NC(=O)CSC[C@@H](C(N)=O)NC(=O)[C@@H]2CCCN2C(=O)[C@H](C)NC(=O)[C@@H]2CCCN2C(=O)[C@H](C)N(C)C(=O)[C@H](Cc2ccc(Cl)cc2)NC(=O)[C@H](C)N(C)C(=O)[C@H](Cc2ccccc2)NC(=O)[C@H]([C@@H](C)O)NC(=O)[C@H]([C@@H](C)O)NC(=O)[C@@H]2CCCN2C1=O` [Example 2-1, (6S,8aS,14S,17S,20S,23S,26S,29S,31aS,37S,40S,46R,48aS)-23,40-dibenzyl-17-(4-chlorobenzyl)-26,29-bis((R)-1-hydroxyethyl)-37-isopropyl-6,14,15,20,21-pentamethyl-5,8,13,16,19,22,25,28,31,36,39,42,48-tridecaoxohexatetracontahydro-13H-tripyrrolo[1,2-e1:1′,2′-j:1″,2″-k1][1]thia[4,7,10,13,16,19,22,25,28,31,34,37,40]tridecaazacyclodo-tetracontine-46-carboxamide] ({CH2CO}-FVPTTF[NMeA][Phe(4-Cl)][NMeA]PAPC-NH2; thioether N-13), the Maximum % inhibition is on record as 50%.
`CC(C)[C@@H]1NC(=O)[C@H](Cc2ccccc2)NC(=O)CSC[C@@H](C(N)=O)NC(=O)[C@@H]2CCCN2C(=O)[C@H](C)NC(=O)C(CC(=O)O)NC(=O)[C@H](C)N(C)C(=O)[C@H](Cc2ccc(Cl)cc2)NC(=O)[C@H](C)N(C)C(=O)[C@H](Cc2ccccc2)NC(=O)[C@H]([C@@H](C)O)NC(=O)[C@H]([C@@H](C)O)NC(=O)[C@@H]2CCCN2C1=O` (stereo partly drawn) [Example 2-2, Ac*-F-V-P-T-T-F-(N-Me)A-(p-Cl)F-(N-Me)A-D-A-P-C*-NH2] ({CH2CO}-FVPTTF[NMeA][Phe(4-Cl)][NMeA][ξD]APC-NH2; thioether N-13): the Maximum % inhibition turned out to be 72%.
`CC(C)[C@@H]1NC(=O)[C@H](Cc2ccccc2)NC(=O)CSC[C@@H](C(N)=O)NC(=O)[C@@H]2CCCN2C(=O)[C@H](C)NC(=O)C(CC(=O)O)NC(=O)[C@H](C)N(C)C(=O)[C@H](Cc2ccc(Cl)cc2)NC(=O)[C@H](C)N(C)C(=O)[C@H](Cc2ccccc2)NC(=O)[C@H]([C@@H](C)O)NC(=O)[C@H]([C@@H](C)O)NC(=O)[C@H](CCO)NC1=O` (stereo partly drawn) [Example 2-3, Ac*-F-V-HomoSer-T-T-F-(N-Me)A-(p-Cl)F-(N-Me)A-D-A-P-C*-NH2] ({CH2CO}-FV[hSer]TTF[NMeA][Phe(4-Cl)][NMeA][ξD]APC-NH2; thioether N-13) yielded a Maximum % inhibition of 75%.
The compound `CC(C)[C@@H]1NC(=O)[C@H](Cc2ccccc2)NC(=O)CSC[C@@H](C(N)=O)NC(=O)[C@@H]2CCCN2C(=O)[C@H](CCCNC(=N)N)NC(=O)[C@H](CC(=O)O)NC(=O)[C@H](C)N(C)C(=O)[C@H](Cc2ccc(-c3ccccc3)cc2)NC(=O)[C@H](C)N(C)C(=O)[C@H](Cc2ccc(-c3ccccc3)cc2)NC(=O)[C@H]([C@@H](C)O)NC(=O)[C@H]([C@@H](C)O)NC(=O)[C@H](CO)NC1=O` [Example 2-4, Ac*-F-V-S-T-T-B-(N-Me)A-B-(N-Me)A-D-R-P-C*-NH2] ({CH2CO}-FVSTT[Bip][NMeA][Bip][NMeA]DRPC-NH2; thioether N-13) returned a Maximum % inhibition of 28%.
The same measure, in the same setting: the same measure for `CC(C)[C@@H]1NC(=O)[C@H](Cc2ccccc2)NC(=O)CSC[C@@H](C(N)=O)NC(=O)[C@@H]2CCCN2C(=O)[C@H](C)NC(=O)[C@H](CC(N)=O)NC(=O)[C@H](C)N(C)C(=O)[C@H](Cc2ccc(Cl)cc2)NC(=O)[C@H](C)N(C)C(=O)[C@H](Cc2ccccc2)NC(=O)[C@H]([C@@H](C)O)NC(=O)[C@H]([C@@H](C)O)NC(=O)[C@H](C)NC1=O` [Example 2-5, Ac*-F-V-A-T-T-F-(N-Me)A-(p-Cl)F-(N-Me)A-N-A-P-C*-NH2] ({CH2CO}-FVATTF[NMeA][Phe(4-Cl)][NMeA]NAPC-NH2; thioether N-13): 46%; for `CC(C)[C@@H]1NC(=O)[C@H]([C@@H](C)O)NC(=O)[C@H]([C@@H](C)O)NC(=O)[C@@H]2CCCN2C(=O)[C@H](C(C)C)NC(=O)[C@H](Cc2ccccc2)NC(=O)CSC[C@@H](C(N)=O)NC(=O)[C@@H]2CCCN2C(=O)[C@H](C)NC(=O)[C@H](CCC(=O)O)NC(=O)[C@H](C)N(C)C(=O)[C@H](Cc2ccc(Cl)cc2)NC(=O)[C@H](C)N(C)C1=O` [Example 2-6, Ac*-F-V-P-T-T-V-(N-Me)A-(p-Cl)F-(N-Me)A-E-A-P-C*-NH2] ({CH2CO}-FVPTTV[NMeA][Phe(4-Cl)][NMeA]EAPC-NH2; thioether N-13): 83%.

Staying with this test, now noted: TR-FRET; Human PCSK9 Alexa Fluor 647 and Human LDLR extracellular domain-Europium Kryptate.
`C[C@@H]1NC(=O)[C@H](C)N(C)C(=O)[C@H](Cc2ccc(-c3ccccc3)cc2)NC(=O)[C@H](C)N(C)C(=O)[C@H](Cc2ccccc2)NC(=O)[C@H]([C@@H](C)O)NC(=O)[C@H]([C@@H](C)O)NC(=O)[C@H](CC(N)=O)NC(=O)[C@H](CCC(=O)O)NC(=O)[C@H](Cc2ccccc2)NC(=O)CSC[C@@H](C(=O)NCC(N)=O)NC(=O)[C@@H]2CCCN2C(=O)[C@H](CO)NC1=O` [Example 1-27, Ac*-F-E-N-T-T-F-(N-Me)A-B-(N-Me)A-A-S-P-C*-G-NH2] ({CH2CO}-FENTTF[NMeA][Bip][NMeA]ASPCG-NH2; thioether N-13): the IC50 stood at 410 nM.
